Test results published in patent publication US12692264B2, “Pyrimidine or pyridine derivative, preparation method therefor, and application thereof in pharmacy” (ABBISKO THERAPEUTICS CO., LTD., priority 2021, dated 2026).

How the values were obtained:
Assay type in all cases: cell-based
A431 (EGFR-WT) = experiment: Cell proliferation study (CellTiter-Glo, 72 hrs), A431; conditions: Homo sapiens, A-431, A431 cells, CTG, * = average of multiple measurements
Procedure: (§1) (I) Reagents and Materials
(§2) • Fetal bovine serum FBS (GBICO, Cat #10099-141); • CellTiter-Glo® luminescent cell viability assay kit (Promega, Cat #G7572); • Black transparent flat-bottom 96-well plate (Corning®, Cat #3603). (II) Instruments • SpectraMax multi-label microplate reader MD, 2104-0010A; • Carbon dioxide incubator, Thermo Scientific 3100 series; • Biological safety cabinet, Thermo Scientific, 1300 series model A2; • Inverted microscope, Olympus, CKX41SF; • Siemens refrigerator KK25E76T1. (III) Cell Lines and Culture Conditions
(§3) (IV) Experimental Procedures 1. Cell Culture and Inoculation: • (1) Cells in the logarithmic growth phase were harvested and counted using a […]. The cell viability was determined by the trypan blue dye exclusion method to ensure cell viability above 90%. • (2) The cell concentration was adjusted to reach a desired final density; 90 μL of cell suspension was added to a 96-well plate. • (3) The cells were incubated overnight in the 96-well plate at 37° C., 5% CO2 and with 95% humidity. 2. T0 Benchmark Data: • (1) 10 μL of PBS was added to each well of the TO plate containing the cells. • (2) The CTG reagent was thawed and the cell plate was equilibrated to room temperature for 30 min. • (3) An equal volume of CTG solution was added to each well. • (4) The cells were lysed by shaking on an orbital shaker for 5 min. • (5) The cell plate was left to stand at room temperature for 20 min to stabilize the fluorescence signal. • (6) The fluorescence signal values of TO were read. 3. Dilution and Addition of Compounds • (1) According to the compound information table, a corresponding volume of DMSO was added to the corresponding compound powder to prepare a 10 mM stock solution. • (2) A 1000-fold, 3.16-fold-diluted compound solution was prepared. • (3) The 1000× diluted compound solution was diluted 100-fold with PBS to prepare a 10-fold compound solution with a maximum concentration of 10 μM, including 9 concentrations, with 3.16-fold dilution, and 10 μL of the medicament solution was added to each well of the 96-well plate to seed the cells. Triplicate wells were set for each compound concentration, with a final concentration of DMSO being 0.1%. • (4) The cells were placed in the 96-well plate containing the medicament at 37° C., 5% CO2 and with 95% humidity, and cultured for 72 hrs before CTG analysis. 4. Fluorescence Signal Reading • (1) The CTG reagent was thawed and the cell plate was equilibrated to room temperature for 30 min. • (2) An equal volume of CTG solution was added to each well. • (3) The cells were lysed by shaking on an orbital shaker for 5 min. • (4) The cell plate was left to stand at room temperature for 20 min to stabilize the fluorescence signal. • (5) The fluorescence values were read. 5. Data Processing
(§4) Data were analyzed using GraphPad Prism 7.0 software and fitted data were regressed using non-linear S-curves to obtain dose-response curves from which IC50 values (in nM) were calculated.

[1] = target: Ba/F3 EGFR-D770-N771ins_SVD (Homo sapiens, UniProt P00533, DUP768-770, cells depend on it); experiment: Cell proliferation study (CellTiter-Glo, 72 hrs), Ba/F3 EGFR-D770-N771ins_SVD; conditions: CTG, * = average of multiple measurements, read-out: Ba/F3 EGFR-D770-N771ins_SVD IC50
Outline: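 Cells were seeded overnight, then exposed for 72 hrs at 37 °C, 5% CO2 to 9 concentrations in 3.16-fold steps, 0.1% DMSO final, triplicate wells. Viability was read by CellTiter-Glo luminescence, with a T0 plate read at dosing. IC50 came from nonlinear sigmoidal dose-response fits.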

[2] = target: Ba/F3 EGFR-V769_D770insASV (Homo sapiens, UniProt P00533, DUP767-769, cells depend on it); experiment: Cell proliferation study (CellTiter-Glo, 72 hrs), Ba/F3 EGFR-V769_D770insASV; conditions: CTG, * = average of multiple measurements, read-out: Ba/F3 EGFR-V769_D770insASV IC50
Procedure: as §1, §2, §3, §4

Ba/F3 EGFR-D770-N771ins_SVD, sequence (P00533 with tags, fused parts or gaps DUP768-770): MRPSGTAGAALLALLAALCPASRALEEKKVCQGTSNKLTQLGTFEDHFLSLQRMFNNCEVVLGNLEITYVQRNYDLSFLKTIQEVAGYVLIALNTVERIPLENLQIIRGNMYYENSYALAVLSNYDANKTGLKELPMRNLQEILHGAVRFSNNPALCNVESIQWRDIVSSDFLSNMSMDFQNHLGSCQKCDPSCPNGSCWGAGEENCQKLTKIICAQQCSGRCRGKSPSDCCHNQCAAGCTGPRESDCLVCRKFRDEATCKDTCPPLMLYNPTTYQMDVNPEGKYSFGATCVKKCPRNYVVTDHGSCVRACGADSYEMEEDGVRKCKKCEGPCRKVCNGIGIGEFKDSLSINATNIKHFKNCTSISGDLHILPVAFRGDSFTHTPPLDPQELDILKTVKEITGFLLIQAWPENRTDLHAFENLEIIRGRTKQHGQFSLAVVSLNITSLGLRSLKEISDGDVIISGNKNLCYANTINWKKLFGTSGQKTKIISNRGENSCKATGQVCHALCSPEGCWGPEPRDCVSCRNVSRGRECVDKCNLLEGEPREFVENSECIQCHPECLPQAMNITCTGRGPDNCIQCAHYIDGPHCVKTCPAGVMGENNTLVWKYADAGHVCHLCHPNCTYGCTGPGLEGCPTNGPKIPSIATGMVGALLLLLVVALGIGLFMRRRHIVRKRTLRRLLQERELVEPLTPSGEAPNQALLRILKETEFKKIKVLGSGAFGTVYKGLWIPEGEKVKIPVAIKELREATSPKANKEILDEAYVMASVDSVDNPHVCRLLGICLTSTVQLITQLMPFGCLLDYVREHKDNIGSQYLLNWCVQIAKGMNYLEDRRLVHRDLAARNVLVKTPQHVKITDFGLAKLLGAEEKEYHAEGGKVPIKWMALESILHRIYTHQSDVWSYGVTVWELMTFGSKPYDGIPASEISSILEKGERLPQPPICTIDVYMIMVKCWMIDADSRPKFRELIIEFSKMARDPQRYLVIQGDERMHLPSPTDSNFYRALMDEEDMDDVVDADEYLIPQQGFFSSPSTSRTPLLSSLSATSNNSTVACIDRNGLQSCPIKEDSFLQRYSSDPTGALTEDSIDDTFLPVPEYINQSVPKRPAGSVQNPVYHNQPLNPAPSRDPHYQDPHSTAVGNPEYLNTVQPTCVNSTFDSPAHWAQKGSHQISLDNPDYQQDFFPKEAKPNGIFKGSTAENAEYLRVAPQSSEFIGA
Ba/F3 EGFR-V769_D770insASV, sequence (P00533 with tags, fused parts or gaps DUP767-769): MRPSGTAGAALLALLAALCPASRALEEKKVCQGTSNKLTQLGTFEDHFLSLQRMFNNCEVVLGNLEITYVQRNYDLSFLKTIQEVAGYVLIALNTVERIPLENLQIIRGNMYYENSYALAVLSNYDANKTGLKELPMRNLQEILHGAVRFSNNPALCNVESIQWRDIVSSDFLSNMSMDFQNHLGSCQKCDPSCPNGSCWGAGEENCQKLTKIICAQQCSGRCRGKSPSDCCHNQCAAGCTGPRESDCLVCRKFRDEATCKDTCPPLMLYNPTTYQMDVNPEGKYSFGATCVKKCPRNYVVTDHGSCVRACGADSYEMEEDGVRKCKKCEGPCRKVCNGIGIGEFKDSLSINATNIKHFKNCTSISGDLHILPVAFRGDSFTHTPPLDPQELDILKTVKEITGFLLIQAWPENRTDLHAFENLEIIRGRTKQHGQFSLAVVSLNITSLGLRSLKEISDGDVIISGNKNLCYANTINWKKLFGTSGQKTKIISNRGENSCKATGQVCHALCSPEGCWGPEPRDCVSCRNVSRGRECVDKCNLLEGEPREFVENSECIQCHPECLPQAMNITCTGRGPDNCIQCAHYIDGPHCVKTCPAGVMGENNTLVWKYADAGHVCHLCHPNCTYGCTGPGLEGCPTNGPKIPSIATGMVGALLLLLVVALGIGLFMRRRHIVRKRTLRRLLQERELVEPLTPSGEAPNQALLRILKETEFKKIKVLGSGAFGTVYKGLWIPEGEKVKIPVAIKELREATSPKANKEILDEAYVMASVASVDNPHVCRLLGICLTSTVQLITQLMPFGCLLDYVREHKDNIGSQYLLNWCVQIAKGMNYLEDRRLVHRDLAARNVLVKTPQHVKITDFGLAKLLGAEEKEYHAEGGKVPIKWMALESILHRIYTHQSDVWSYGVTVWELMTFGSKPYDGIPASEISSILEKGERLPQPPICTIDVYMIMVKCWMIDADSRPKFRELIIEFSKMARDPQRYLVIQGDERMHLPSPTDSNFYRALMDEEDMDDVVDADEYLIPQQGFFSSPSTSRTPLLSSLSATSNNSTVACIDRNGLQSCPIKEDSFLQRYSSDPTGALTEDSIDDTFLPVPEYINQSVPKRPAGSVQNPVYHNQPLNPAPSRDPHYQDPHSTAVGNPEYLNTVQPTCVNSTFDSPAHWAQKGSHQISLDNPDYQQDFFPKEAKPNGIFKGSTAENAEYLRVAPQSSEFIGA

Structure (SMILES)	IC50 (A431 (EGFR-WT)) [nM]	GI50 [1] [nM]	GI50 [2] [nM]
[2H]C1([2H])N(c2nc(Nc3cc(NC(=O)C=C)c(N4CC[C@@H](N(C)C)C4)cc3OC)ncc2C(=O)OC(C)C)c2ccc(C)nc2C1(C)C [Example 49, isopropyl (R)-2-((5-acrylamido-4-(3-(dimethyl-amino)pyrrolidin-1-yl)-2-methoxy-phenyl)amino)-4-(3,3,5-trimethyl-2,3-dihydro-1H-pyrrolo[3,2-b]pyridin-1-yl-2,2-d2)pyrimidine-5-carboxylate]	1420	31.3	24.4
C=CC(=O)Nc1cc(Nc2ncc(C(=O)OC(C)C)c(N3CC(C)(C)c4nc(C)ccc43)n2)c(OC)cc1N1CC[C@@H](N(C)C)C1 [Example 12, isopropyl (R)-2-((5-acrylamido-4-(3-(dimethyl-amino)pyrrolidin-1-yl)-2-methoxy-phenyl)amino)-4-(3,3,5-trimethyl-2,3-dihydro-1H-pyrrolo[3,2-b]pyridin-1-yl)pyrimidine-5-carboxylate]	599	18.5	36.9
C=CC(=O)Nc1cc(Nc2ncc(C(=O)OC(C)C)c(N3CC(C)(C)c4nc(C)ccc43)n2)c(OC)cc1NCCN(C)C [Example 55, isopropyl 2-((5-acrylamido-4-((2-(dimethylami-no)ethyl)amino)-2-methoxy-phenyl)amino)-4-(3,3,5-trimethyl-2,3-dihydro-1H-pyrrolo[3,2-b]pyridin-1-yl)pyrimidine-5-carboxylate]	432	22.8	52
[2H]C1([2H])N(c2nc(Nc3cc(NC(=O)C=C)c(N4CCC[C@@H]4CN(C)C)cc3OC)ncc2C(=O)OC(C)C)c2ccc(C)nc2C1(C)C [Example 48, isopropyl (R)-2-((5-acrylamido-4-(2-((dimethyl-amino)methyl)pyrrolidin-1-yl)-2-meth-oxyphenyl)amino)-4-(3,3,5-trimethyl-2,3-dihydro-1H-pyrrolo[3,2-b]pyridin-1-yl-2,2-d2)pyrimidine-5-carboxylate]	4.4	11.1	37
C=CC(=O)Nc1cc(Nc2ncc(C(=O)OC(C)C)c(N3CC(C)(C)c4nc(C#CC)ccc43)n2)c(OC)cc1N(C)CCN(C)C [Example 30, isopropyl 2-((5-acrylamido-4-((2-(dimethylami-no)ethyl)(methyl)amino)-2-methoxy-phenyl)amino)-4-(3,3-dimethyl-5-(prop-1-yn-1-yl)-2,3-dihydro-1H-pyrrolo[3,2-b]pyridin-1-yl)pyrimidine-5-carboxylate]	557	7.6	21.5
C=CC(=O)Nc1cc(Nc2ncc(C(=O)OC(C)C)c(N3CC(C)(C)c4nc(C)ccc43)n2)c(OC)cc1N(C)CCN(CC)CC [Example 56, isopropyl 2-((5-acrylamido-4-((2-(diethylami-no)ethyl)(methyl)amino)-2-methoxy-phenyl)amino)-4-(3,3,5-trimethyl-2,3-dihydro-1H-pyrrolo[3,2-b]pyridin-1-yl)pyrimidine-5-carboxylate]	301	33.5	91.1
C=CC(=O)Nc1cc(Nc2ncc(C(=O)OC(C)C)c(N3CC4(CCC4)c4ncccc43)n2)c(OC(F)F)cc1N(C)CCN(C)C [Example 6, isopropyl 2-((5-acrylamido-2-(difluoromethoxy)-4-((2-(dimethylamino)ethyl)(methyl)ami-no)phenyl)amino)-4-(spiro(cyclo-butane-1,3′-pyrrolo[3,2-b]pyridin)-1′(2′H)-yl)pyrimidine-5-carboxylate]	627	12.4	35.1
C=CC(=O)Nc1cc(Nc2ncc(C(=O)OC(C)C)c(N3CC(C)(C)c4nc(C)ccc43)n2)c(OC)nc1N(C)CCN(C)C [Example 29, isopropyl 2-((5-acrylamido-6-((2-(dimethylami-no)ethyl)(methyl)amino)-2-methoxy-pyridin-3-yl)amino)-4-(3,3,5-trimethyl-2,3-dihydro-1H-pyrrolo[3,2-b]pyridin-1-yl)pyrimidine-5-carboxylate]	282	13.3	16
C=CC(=O)Nc1cc(Nc2ncc(C(=O)OC(C)C)c(N3CC(C)(C)c4nc(C)ccc43)n2)c(O)cc1N(C)CCN(C)C [Example 54, isopropyl 2-((5-acrylamido-4-((2-(dimethylami-no)ethyl)(methyl)amino)-2-hydroxy-phenyl)amino)-4-(3,3,5-trimethyl-2,3-dihydro-1H-pyrrolo[3,2-b]pyridin-1-yl)pyrimidine-5-carboxylate]	1140	77	81.9
[2H]C([2H])([2H])N(CCN(C)C)c1cc(OC)c(Nc2ncc(C(=O)OC(C)C)c(N3CC(C)(C)c4nc(C)ccc43)n2)cc1NC(=O)C=C [Example 36, isopropyl 2-((5-acrylamido-4-((2-(dimethylami-no)ethyl)(methyl-d3)amino)-2-methoxy-phenyl)amino)-4-(3,3,5-trimethyl-2,3-dihydro-1H-pyrrolo[3,2-b]pyridin-1-yl)pyrimidine-5-carboxylate]	353	14.8	22.8

Second part, the molecule after the results:

IC50 (A431 (EGFR-WT)) [nM]	GI50 [1] [nM]	GI50 [2] [nM]	Structure (SMILES)
561	23.6	13.8	C=CC(=O)Nc1cc(Nc2ncc(C(=O)OC(C)C)c(N3CC(C)(C)c4ccccc43)n2)c(OC)cc1N(C)CCN(C)C [Example 85, isopropyl 2-((5-acrylamido-4-((2-(dimethylami-no)ethyl)(methyl)amino)-2-methoxy-phenyl)amino)-4-(3,3-dimethylindolin-1-yl)pyrimidine-5-carboxylate]
282	39	34.4	C=CC(=O)Nc1cc(Nc2ncc(C(=O)OC(C)C)c(N3CC4(CC4)c4nc(C)ccc43)n2)c(OC)cc1NCCN(C)C [Example 65, isopropyl 2-((5-acrylamido-4-((2-(dimethylami-no)ethyl)amino)-2-methoxy-phenyl)amino)-4-(5′-methylspiro(cyclo-propane-1,3′-pyrrolo[3,2-b]pyridin)-1′(2′H)-yl)pyrimidine-5-carboxylate]
778	34.6	28.8	C=CC(=O)Nc1cc(Nc2ncc(C(=O)OC(C)C)c(N3CC(C)(C)c4cc(F)c(F)cc43)n2)c(OC)cc1N1C[C@@H](F)C[C@@H]1CN(C)C [Example 93, isopropyl 2-((5-acrylamido-4-((2R,4S)-2-((di-methylamino)methyl)-4-fluoro-pyrrolidin-1-yl)-2-methoxy-phenyl)amino)-4-(5,6-difluoro-3,3-dimethylindolin-1-yl)pyrimidine-5-carboxylate]
1080	37.5	32.2	C=CC(=O)Nc1cc(Nc2ncc(C(=O)OC(C)C)c(N3CC(C)(C)c4cc(F)c(F)cc43)n2)c(OC)cc1N(C)CCN(C)C [Example 91, isopropyl 2-((5-acrylamido-4-((2-(dimethylami-no)ethyl)(methyl)amino)-2-methoxy-phenyl)amino)-4-(5,6-difluoro-3,3-dimethylindolin-1-yl)pyrimidine-5-carboxylate]
39.7	8.8	12.3	C=CC(=O)Nc1cc(Nc2ncc(C(=O)OC(C)C)c(N3CC4(CC4)c4nc(C)ccc43)n2)c(OC)cc1N1C[C@@H](F)C[C@@H]1CN(C)C [Example 64, isopropyl 2-((5-acrylamido-4-((2R,4S)-2-((di-methylamino)methyl)-4-fluoro-pyrrolidin-1-yl)-2-methoxy-phenyl)amino)-4-(5′-methyl-spiro(cyclopropane-1,3′-pyrrolo[3,2-b]pyridin)-1′(2′H)-yl)pyrimidine-5-carboxylate]
